How the values were obtained:
Assay in all cases: Bliss excess, mean over the matrix (fraction); higher = more synergy
TC-71 (Ewing's Sarcoma) = system: TC-71 (Ewing's Sarcoma)
How it was run: (§1)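 After 24 hours at 37°C and 5% CO2 in 1536-well plates, cells in DMEM/F12 or RPMI plus 10% FBS received two-drug dose matrices for 72 hours. Viability came from CellTiter-Glo 2.0 luminescence and was scaled as inhibition, anchored at 0 by vehicle wells and at 1 by blank wells. Combination Emax is taken as the second-highest inhibition in the matrix, and Bliss excess as the observed combination effect less EA + EB − EA·EB, with EA and EB the single-agent effects.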

[1] = system: K-562 (Chronic Myelogenous Leukemia)
How it was run: as §1

[2] = system: MOLT-16 (T-Lymphoblastic Leukemia)
How it was run: as §1

[3] = system: HL-60 (Acute Myeloid Leukemia)
How it was run: as §1

[4] = system: DiFi (Colorectal Carcinoma)
How it was run: as §1

[5] = system: KYSE-180 (Esophageal Squamous Cell Carcinoma)
How it was run: as §1

ES8 (Ewing's Sarcoma) = system: ES8 (Ewing's Sarcoma)
How it was run: as §1

[6] = system: EVSA-T (Breast Carcinoma)
How it was run: as §1

[7] = system: MKN28 (Gastric Carcinoma)
How it was run: as §1

WM-115 (Melanoma) = system: WM-115 (Melanoma)
How it was run: as §1

[8] = system: NCI-H1792 (Lung Adenocarcinoma)
How it was run: as §1

[9] = system: KCL-22 (Chronic Myelogenous Leukemia)
How it was run: as §1

[10] = system: TE-6 (Esophageal Squamous Cell Carcinoma)
How it was run: as §1

[11] = system: PANC-08-13 (Pancreatic Carcinoma)
How it was run: as §1

[12] = system: MFM-223 (Breast Carcinoma)
How it was run: as §1

[13] = system: GR-ST (B-Lymphoblastic Leukemia)
How it was run: as §1

[14] = system: SR (Other Blood Carcinomas)
How it was run: as §1

LN-18 (Glioblastoma) = system: LN-18 (Glioblastoma)
How it was run: as §1

[15] = system: P12-ICHIKAWA (T-Lymphoblastic Leukemia)
How it was run: as §1

| SMILES | Bliss excess (TC-71 (Ewing's Sarcoma)) | Bliss excess [1] | Bliss excess [2] | Bliss excess [3] | Bliss excess [4] | Bliss excess [5] | Bliss excess (ES8 (Ewing's Sarcoma)) | Bliss excess [6] | Bliss excess [7] | Bliss excess (WM-115 (Melanoma)) | Bliss excess [8] | Bliss excess [9] | Bliss excess [10] | Bliss excess [11] | Bliss excess [12] | Bliss excess [13] | Bliss excess [14] | Bliss excess (LN-18 (Glioblastoma)) | Bliss excess [15] |
| --- | --- | --- | --- | --- | --- | --- | --- | --- | --- | --- | --- | --- | --- | --- | --- | --- | --- | --- | --- |
| COc1nnc2ccc(N3CCC(c4ccc(OCCN5CCN(C)C(=O)[C@H]5C)cc4)CC3)nn12 [AZD5153] + C=CCn1c(=O)c2cnc(Nc3ccc(N4CCN(C)CC4)cc3)nc2n1-c1cccc(C(C)(C)O)n1 [AZD1775] (first compound max 1 µM, partner max 1 µM) | 0.0354 | -0.0718 | -0.0021 | -0.0519 | -0.0761 | -0.0323 | -0.0563 | -0.0108 | -0.0617 | -0.11 | -0.0428 | -0.0578 | -0.0166 | 0.0108 | -0.0679 | -0.0897 | -0.074 | -0.0502 | 0.0148 |
| COc1nnc2ccc(N3CCC(c4ccc(OCCN5CCN(C)C(=O)[C@H]5C)cc4)CC3)nn12 [AZD5153] + CC1(C)CCC(CN2CCN(c3ccc(C(=O)NS(=O)(=O)c4ccc(NCC5CCOCC5)c([N+](=O)[O-])c4)c(Oc4cnc5[nH]ccc5c4)c3)CC2)=C(c2ccc(Cl)cc2)C1 [Venetoclax] (first compound max 1 µM, 7x7, partner max 1 µM) | -0.0443 | -0.0494 | 0.0309 | -0.0379 | 0.0054 | -0.0193 | -0.0594 | -0.0008 | -0.0251 | -0.0717 | -0.0215 | -0.0343 | -0.103 | 0.0065 | -0.0295 | -0.0399 | -0.0209 | 0.0348 | -0.0389 |
| COc1nnc2ccc(N3CCC(c4ccc(OCCN5CCN(C)C(=O)[C@H]5C)cc4)CC3)nn12 [AZD5153] + CCN(CCO)CCCOc1ccc2c(Nc3cc(CC(=O)Nc4cccc(F)c4)[nH]n3)ncnc2c1 [AZD2811] (first compound max 1 µM, 7x7, partner max 1 µM) | -0.0316 | -0.0153 | -0.0173 | -0.0076 | -0.068 | 0.0356 | -0.0119 | 0.0047 | -0.0244 | -0.0814 | -0.083 | 0.0425 | -0.0501 | -0.0175 | -0.0622 | -0.0238 | -0.0672 | -0.107 | 0.0024 |
| COc1nnc2ccc(N3CCC(c4ccc(OCCN5CCN(C)C(=O)[C@H]5C)cc4)CC3)nn12 [AZD5153] + CN(CC[C@H](CSC1=CC=CC=C1)NC2=C(C=C(C=C2)S(=O)(=O)NC(=O)C3=CC=C(C=C3)N4CCC(CC4)[C@H](C5=CC=CC=C5C6=CC=C(C=C6)Cl)O)S(=O)(=O)C(F)(F)F)CCO [AZD4320] (first compound max 1 µM, 7x7, partner max 1 µM) | -0.081 |  | 0.0258 | -0.0203 | 0.0671 | 0.0551 |  | 0.0426 |  |  |  | 0.078 | -0.0157 | 0.0589 | -0.0065 |  |  | -0.0251 | 0.0283 |
| COc1nnc2ccc(N3CCC(c4ccc(OCCN5CCN(C)C(=O)[C@H]5C)cc4)CC3)nn12 [AZD5153] + C[C@@H]1COCCN1C2=NC(=NC(=C2)C3(CC3)[S@](=N)(=O)C)C4=C5C=CNC5=NC=C4 [AZD6738] (first compound max 1 µM, 7x7, partner max 10 µM) | 0.0254 | -0.0303 | -0.0105 | -0.0003 | 0.0524 | 0.0656 | -0.0096 | 0.0026 | -0.0072 | -0.0276 | -0.0628 | -0.0188 | -0.0503 | 0.035 | -0.0011 | -0.0956 | -0.016 | -0.02 | 0.055 |
| COc1nnc2ccc(N3CCC(c4ccc(OCCN5CCN(C)C(=O)[C@H]5C)cc4)CC3)nn12 [AZD5153] + Cc1c2c(nn1C)CSCc1cc(n(C)n1)CSc1cc(c3ccccc3c1)OCCCc1c(C(=O)O)n(C)c3c-2c(Cl)ccc13 [AZD5991] (first compound max 1 µM, 7x7, partner max 1 µM) | 0.0285 | -0.0496 | -0.0072 | -0.0038 | -0.0066 | -0.0033 | 0.0357 | 0.003 | -0.0235 | -0.0256 | -0.0008 | -0.0633 | -0.0701 | 0.0228 | -0.0258 | -0.027 | -0.0275 | -0.0751 | 0.0813 |
| COc1nnc2ccc(N3CCC(c4ccc(OCCN5CCN(C)C(=O)[C@H]5C)cc4)CC3)nn12 [AZD5153] + Cn1cnc2c(F)c(Nc3ccc(Br)cc3Cl)c(C(=O)NOCCO)cc21 [Selumetinib] (first compound max 1 µM, 7x7, partner max 10 µM) | 0.0049 | -0.001 | -0.0353 | 0.0707 | -0.0011 | 0.046 | 0.0303 | -0.031 | -0.0169 | 0.15 | 0.0577 | 0.0841 | -0.0216 | 0.0924 | -0.0299 | -0.0578 | -0.0614 | 0.0152 | 0.0746 |
| NC1(C(=O)N[C@@H](CCO)c2ccc(Cl)cc2)CCN(c2ncnc3[nH]ccc23)CC1 [Capivasertib] + CC(=O)c1c(C)c2cnc(Nc3ccc(N4CCNCC4)cn3)nc2n(C2CCCC2)c1=O [Palbociclib] (first compound max 10 µM, 7x7, partner max 10 µM) | 0.0341 | 0.0122 | -0.0011 | -0.0406 | -0.0394 | 0.0645 | 0.0848 | 0.0168 | -0.0459 | -0.0469 | 0.0419 | 0.0438 | -0.0195 | -0.0151 | 0.0091 | -0.0067 | 0.0289 | 0.0368 | -0.0096 |
| NC1(C(=O)N[C@@H](CCO)c2ccc(Cl)cc2)CCN(c2ncnc3[nH]ccc23)CC1 [Capivasertib] + CC(C)n1c(=O)n(C)c2cnc3cc(F)c(-c4ccc(OCCCN5CCCCC5)nc4)cc3c21 [AZD1390] (first compound max 10 µM, 7x7, partner max 0.3 µM) | -0.0567 | 0.0077 | -0.0658 | -0.0656 | -0.0436 | -0.0509 | -0.0318 | -0.0326 | -0.0634 | -0.0368 | -0.0625 | -0.0116 | -0.134 | -0.0908 | -0.0098 | -0.0449 | -0.0452 | -0.0325 | -0.018 |
| NC1(C(=O)N[C@@H](CCO)c2ccc(Cl)cc2)CCN(c2ncnc3[nH]ccc23)CC1 [Capivasertib] + CCN(CCO)CCCOc1ccc2c(Nc3cc(CC(=O)Nc4cccc(F)c4)[nH]n3)ncnc2c1 [AZD2811] (first compound max 10 µM, 7x7, partner max 1 µM) | -0.0573 | -0.0151 | -0.0183 | -0.0819 | -0.0475 | -0.0303 | -0.0394 | 0.0219 | 0.0119 | -0.0223 | -0.0079 | 0.0544 | -0.0003 | -0.0015 | -0.0072 | 0.0222 | -0.0053 | -0.022 | -0.014 |
| NC1(C(=O)N[C@@H](CCO)c2ccc(Cl)cc2)CCN(c2ncnc3[nH]ccc23)CC1 [Capivasertib] + COc1nnc2ccc(N3CCC(c4ccc(OCCN5CCN(C)C(=O)[C@H]5C)cc4)CC3)nn12 [AZD5153] (first compound max 10 µM, 7x7, partner max 1 µM) | 0.0228 | 0.0061 | 0.0458 | 0.0346 | -0.056 | 0.0387 | 0.0894 | -0.033 | -0.0075 | 0.0031 | 0.0039 | 0.0441 | -0.0708 | 0.0483 | -0.0302 | -0.0565 | -0.0166 | 0.0494 | 0.0553 |
| NC1(C(=O)N[C@@H](CCO)c2ccc(Cl)cc2)CCN(c2ncnc3[nH]ccc23)CC1 [Capivasertib] + C[C@@H]1COCCN1C2=NC(=NC(=C2)C3(CC3)[S@](=N)(=O)C)C4=C5C=CNC5=NC=C4 [AZD6738] (first compound max 10 µM, 7x7, partner max 10 µM) | 0.0295 | -0.0383 | -0.0161 | -0.04 | -0.122 | -0.0866 | 0.0038 | 0.0185 | -0.0459 | -0.0502 | -0.0208 | 0.0044 | -0.0476 | 0.0128 | -0.0626 | -0.035 | 0.016 | -0.0463 | 0.0043 |
| NC1(C(=O)N[C@@H](CCO)c2ccc(Cl)cc2)CCN(c2ncnc3[nH]ccc23)CC1 [Capivasertib] + Cn1cnc2c(F)c(Nc3ccc(Br)cc3Cl)c(C(=O)NOCCO)cc21 [Selumetinib] (first compound max 10 µM, 7x7, partner max 10 µM) | 0.0203 | 0.0713 | 0.0683 | 0.021 | 0.0049 | -0.0307 | -0.0548 | -0.0157 | -0.05 | 0.071 | 0.0276 | 0.117 | 0.0032 | 0.0495 | 0.0276 | -0.0428 | 0.0682 | 0.0373 | 0.15 |
| CC(=O)c1c(C)c2cnc(Nc3ccc(N4CCNCC4)cn3)nc2n(C2CCCC2)c1=O [Palbociclib] + CN(CC[C@H](CSC1=CC=CC=C1)NC2=C(C=C(C=C2)S(=O)(=O)NC(=O)C3=CC=C(C=C3)N4CCC(CC4)[C@H](C5=CC=CC=C5C6=CC=C(C=C6)Cl)O)S(=O)(=O)C(F)(F)F)CCO [AZD4320] (first compound max 10 µM, 7x7, partner max 1 µM) | -0.0326 |  | -0.0494 | -0.102 | -0.0038 | -0.0269 |  | -0.0631 |  |  |  | -0.0299 | -0.0596 | -0.0459 | -0.0021 |  |  | -0.0081 | -0.0298 |
| C[C@@H](c1ccc2nccn2c1)n1nnc2ncc(-c3cnn(C)c3)nc21 [Savolitinib] + CN(CC[C@H](CSC1=CC=CC=C1)NC2=C(C=C(C=C2)S(=O)(=O)NC(=O)C3=CC=C(C=C3)N4CCC(CC4)[C@H](C5=CC=CC=C5C6=CC=C(C=C6)Cl)O)S(=O)(=O)C(F)(F)F)CCO [AZD4320] (first compound max 1 µM, 7x7, partner max 1 µM) | -0.0266 |  | -0.0222 | -0.0536 | -0.0713 | -0.0161 |  | 0.0099 |  |  |  | -0.0201 | -0.0312 | -0.0588 | -0.0726 |  |  | -0.0406 | -0.0097 |

— the supplement of paper PMC11061612
